Read-outs that look alike come from different tables or passages of the source.
Tests used:
human AR = molecular target: T1, human AR (Homo sapiens, UniProt P10275); assay: biochemical; type: binding
T1 construct: expressed in transfected cells; host or cells: PC3/AR cells (gift of Dr. Kerry Burnstein, University of Miami); cytosolic fraction of sonicated lysate
T1 sequence (P10275 1-920): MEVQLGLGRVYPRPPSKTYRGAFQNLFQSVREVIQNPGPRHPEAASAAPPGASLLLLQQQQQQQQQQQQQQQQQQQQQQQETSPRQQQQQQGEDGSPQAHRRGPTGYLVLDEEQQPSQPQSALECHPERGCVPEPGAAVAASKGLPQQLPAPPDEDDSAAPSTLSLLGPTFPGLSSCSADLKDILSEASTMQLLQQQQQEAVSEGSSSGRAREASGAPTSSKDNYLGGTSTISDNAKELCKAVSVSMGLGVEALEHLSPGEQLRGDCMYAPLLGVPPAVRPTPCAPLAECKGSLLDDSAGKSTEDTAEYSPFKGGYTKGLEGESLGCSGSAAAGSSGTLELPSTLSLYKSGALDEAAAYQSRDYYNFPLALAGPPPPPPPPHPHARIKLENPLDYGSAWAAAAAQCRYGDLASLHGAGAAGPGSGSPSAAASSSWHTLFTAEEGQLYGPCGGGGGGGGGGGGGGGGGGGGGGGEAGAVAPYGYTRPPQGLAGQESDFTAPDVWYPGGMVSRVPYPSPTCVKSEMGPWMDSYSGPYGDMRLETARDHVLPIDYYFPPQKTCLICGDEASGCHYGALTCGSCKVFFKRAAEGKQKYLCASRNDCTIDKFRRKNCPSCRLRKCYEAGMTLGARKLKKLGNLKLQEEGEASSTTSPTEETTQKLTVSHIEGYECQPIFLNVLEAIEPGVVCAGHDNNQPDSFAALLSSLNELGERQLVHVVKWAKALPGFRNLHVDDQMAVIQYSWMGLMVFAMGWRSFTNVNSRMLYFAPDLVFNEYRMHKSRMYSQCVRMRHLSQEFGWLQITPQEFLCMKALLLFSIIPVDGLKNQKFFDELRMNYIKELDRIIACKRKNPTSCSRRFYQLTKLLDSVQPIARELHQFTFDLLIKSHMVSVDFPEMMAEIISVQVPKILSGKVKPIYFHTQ

AR-GFP receptor = type: cell-based; conditions: for inhibition of the action of 1.0 nM Mibolerone on AR-GFP: co-treatment with 1.0 nM Mibolerone
Description: PC3 cells were, therefore, grown in 6 well plates and transiently transfected with a plasmid containing the AR-GFP construct obtained from Dr. Arun Roy (UTHSC; San Antonio, Tex.).
This cell suspension was dispensed in 2 mL aliquots into 6-well tissue culture plates. […] To each solution was added 2 μL of a 800 μg/mL solution of the pEGFP-C2 rcAR plasmid in Millipore water. After gentle mixing, the transfection cocktail was allowed to incubate at room temperature for 40 min. […] The growth medium was again replaced with 1 mL of phenol red-free RPMI supplemented with dextran-coated charcoal-stripped FBS. Candidate AR-GFP expressing cells in each well were identified and marked before an appropriate concentrations of the test compounds were added in 10 μL of sterile DMSO.

[1] = Hydrolysis of anthracycline-formaldehyde N-Mannich bases followed by HPLC; conditions: for stability under AR binding assay conditions: reaction buffer, 30 min incubation at 4° C., HPLC
Description: The area under the curve for the N-Mannich base was determined at each time point and was used to establish the kinetics of decomposition, using regression software. Hydrolysis of AOM-doxsaliform was carried out in pH 8.0 100 mM sodium phosphate buffer at 37° C. AOM-doxsaliform was dissolved in 48.0 μL DMSO and this solution was diluted into phosphate buffer to give 4.8 mL of an […] solution containing 1% DMSO. To this solution was added 6 μL of pig liver esterase (0.8 units/μL; Sigma; Milwaukee, Wis.) to achieve a final concentration of 1.0 units/mL. […] Brief centrifugation served to pellet the insoluble fraction. The drug solution was then transferred to a round bottom flask and concentrated by brief rotary-evaporation at 20° C. Reverse phase HPLC was used to analyze the extent of hydrolysis.
Hydrolysis of the N-Mannich bases, prepared from either doxorubicin or daunorubicin and the respective amides, at 37° C. in pH 7.4 triethylammonium acetate (TEAA) buffer (20 mM) containing 10-30% MeOH was monitored by reverse phase HPLC. […] Identification of a less robust construct that could be used to rapidly deliver the active Schiff base metabolite of doxorubicin to a growing tumor was undertaken.

PC3/AR and PC3/neo cells = conditions: for intracellular distribution of fluorescence over time: 3 h treatment / over time
Description: The fluorescence of doxorubicin can be monitored in order to determine the rate of uptake and intracellular distribution of the anthraquinone fluorophore.
This cell suspension was dispensed in 2 mL aliquots into 6-well tissue culture plates. Plates were then incubated for 36 h at 37° C. in a humidified atmosphere of 5% CO2 and 95% air. The medium was replaced with 1 mL of phenol red-free RPMI 1640 growth medium supplemented with 10% dextran-coated charcoal stripped FBS prior to addition of the test compound. The appropriate compound was dissolved in DMSO and the concentration was adjusted to 50-200 μM by measuring the solution absorbance at 480 nm. Addition of 10 μL of the appropriate doxorubicin or prodrug solution was followed by incubation at 37° C. as indicated. The drug solution in individual wells was removed at the appropriate time and the cells were washed with 1 mL of the phenol red-free growth medium. The washed cells were then supplemented with 1 mL of phenol-red free growth medium for imaging.

estrogen receptor = molecular target: T2, estrogen receptor (Homo sapiens, UniProt P03372); assay: Estrogen receptor competitive binding assay (3H-E2, MCF-7 cell lysate); conditions: relative to E/Z-4-OHT = 100
T2 construct: endogenous in cells; host or cells: MCF-7 cells (ATCC); 225,000 g supernatant of sonicated lysate

[2] = relative binding affinity (Table 4, Example 3 numbering)
[3] = vs 1.0 nM 3H-Mibolerone, PC3/AR cell lysate, 4° C. (Table 4, Example 3 numbering)
[4] = vs 1.0 nM 3H-Mibolerone, PC3/AR cell lysate, 4° C., 30 min (Table 3, Example 2 numbering)

T2 sequence (P03372 whole entry): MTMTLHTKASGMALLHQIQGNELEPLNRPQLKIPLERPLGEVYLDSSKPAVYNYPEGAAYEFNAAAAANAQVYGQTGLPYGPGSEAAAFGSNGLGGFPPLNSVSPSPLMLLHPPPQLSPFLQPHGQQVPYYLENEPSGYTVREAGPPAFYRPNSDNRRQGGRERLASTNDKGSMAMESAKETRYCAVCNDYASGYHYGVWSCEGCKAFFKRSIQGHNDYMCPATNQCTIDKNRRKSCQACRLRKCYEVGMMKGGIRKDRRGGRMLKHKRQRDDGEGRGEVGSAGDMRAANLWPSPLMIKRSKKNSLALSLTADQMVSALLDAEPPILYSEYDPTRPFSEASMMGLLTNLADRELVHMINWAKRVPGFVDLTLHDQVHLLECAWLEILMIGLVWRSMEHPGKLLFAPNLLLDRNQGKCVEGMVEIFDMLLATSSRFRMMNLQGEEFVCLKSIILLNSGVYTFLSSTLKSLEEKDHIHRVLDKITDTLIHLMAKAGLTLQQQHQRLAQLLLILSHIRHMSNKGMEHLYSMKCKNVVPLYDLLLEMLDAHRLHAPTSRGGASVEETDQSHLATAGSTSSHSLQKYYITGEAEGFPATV

SMILES: CC1(C)C(=O)N(c2ccc(C#N)c(C(F)(F)F)c2)C(=O)N1CCOCCN1CCN(CCOCc2ccc(O)c(C(N)=O)c2)CC1 [12b]
- RBA (human AR): 3
- RBA (human AR; [2]): 3
- IC50 (human AR; [3]): 346 nM
- IC50 (human AR; [4]): 346 nM
- inhibition of the action of 1.0 nM Mibolerone on AR-GFP (AR-GFP receptor): not capable of inhibiting the action of 1.0 nM Mibolerone
- nuclear translocation of AR-GFP (AR-GFP receptor; concentration not given): does not instigate translocation

SMILES: COc1cccc2c1C(=O)c1c(O)c3c(c(O)c1C2=O)C[C@@](O)(C(=O)CO)C[C@@H]3O[C@H]1C[C@H](NCNC(=O)c2ccccc2OCOC(C)=O)[C@H](O)[C@H](C)O1 [AOM-doxsaliform, N-[(2-Acetoxymethyloxy)-benzamidomethyl]-doxorubicin]
- release of doxorubicin from acetoxymethylene-protected derivative ([1]; 37° C., pH 7.3 RPMI 1640, 3 h of observation): no hydrolysis was evident
- intracellular distribution of fluorescence over time (PC3/AR and PC3/neo cells): accumulate, at least to some extent over time (>3 h), in the nuclei

SMILES: CC1(C)C(=O)N(c2ccc(C#N)c(C(F)(F)F)c2)C(=O)N1CCOCCOCCOCc1ccc(O)c(C(N)=O)c1 [8b, 5-[2-(2-{2-[3-(4-Cyano-3-trifluoromethyl-phenyl)-5,5-dimethyl-2,4-dioxo-imidazolidin-1-yl]-ethoxy}-ethoxy)-ethoxymethyl]-2-hydroxy-benzamide]
- IC50 (human AR; [3]): 332 nM
- IC50 (human AR; [4]): 332 nM

SMILES: CC1(C)C(=O)N(c2ccc(C#N)c(C(F)(F)F)c2)C(=O)N1CCCCN1CCN(CCOCc2ccc(O)c(C(N)=O)c2)CC1 [12a, 5-[2-(4-{4-[3-(4-Cyano-3-trifluoromethyl-phenyl)-5,5-dimethyl-2,4-dioxo-imidazolidin-1-yl]-butyl}-piperazin-1-yl)-ethoxymethyl]-2-hydroxy-benzamide]
- RBA (human AR): <1
- RBA (human AR; [2]): <1
- IC50 (human AR; [3]): > 1000 nM
- inhibition of the action of 1.0 nM Mibolerone on AR-GFP (AR-GFP receptor): not capable of inhibiting the action of 1.0 nM Mibolerone
- nuclear translocation of AR-GFP (AR-GFP receptor; concentration not given): does not instigate translocation

SMILES: C[C@@H]1CC2=CC(=O)CC[C@@H]2[C@H]2CC[C@@]3(C)[C@@H](CC[C@]3(C)O)[C@@H]21 [Mibolerone, reference compound]
- nuclear translocation of AR-GFP (AR-GFP receptor; 1.0 nM): causes nuclear translocation of the AR-GFP receptor

SMILES: CCC(=C(c1ccc(O)cc1)c1ccc(OCCN(C)CCOCCON=Cc2ccc(O)c(C(N)=O)c2)cc1)c1ccccc1 [10b, E/Z-2-Hydroxy-5-[(2-{2-[(2-{4-[1-(4-hydroxy-phenyl)-2-phenyl-but-1-enyl]-phenoxy}-ethyl)-methyl-amino]-ethoxy}-ethoxyimino)-methyl]-benzamide]
- RBA^OHT (estrogen receptor): 3.3

SMILES: CC1(C)C(=O)N(c2ccc(C#N)c(C(F)(F)F)c2)C(=O)N1CC#CCOCc1ccc(O)c(C(N)=O)c1 [8c, 5-{4-[3-(4-Cyano-3-trifluoromethyl-phenyl)-5,5-dimethyl-2,4-dioxo-imidazolidin-1-yl]-but-2-ynyloxymethyl}-2-hydroxy-benzamide]
- IC50 (human AR; [4]): 49 nM

SMILES: CC1(C)NC(=O)N(c2ccc(C#N)c(C(F)(F)F)c2)C1=O [2f, 4-(4,4-Dimethyl-2,5-dioxo-imidazolidin-1-yl)-2-trifluoromethylbenzonitrile]
- IC50 (human AR): 6 nM
- RBA (human AR): 150
- RBA as fraction of nilutamide binding (human AR): 150%
- nuclear translocation of AR-GFP (AR-GFP receptor; concentration not given): induce partial translocation

SMILES: CCCC(=O)OCOc1ccc(COCC#CCN2C(=O)N(c3ccc(C#N)c(C(F)(F)F)c3)C(=O)C2(C)C)cc1C(N)=O [6b]
- nuclear translocation of AR-GFP (AR-GFP receptor; concentration not given): causing nuclear translocation of the AR upon binding

SMILES: CCCC(=O)OCOc1ccc(COCC#CCN2C(=O)N(c3ccc(C#N)c(C(F)(F)F)c3)C(=O)C2(C)C)cc1C(=O)NCNC1CC(OC2CC(O)(C(=O)CO)Cc3c(O)c4c(c(O)c32)C(=O)c2c(OC)cccc2C4=O)OC(C)C1O (stereo not shown) [compound 10, N-(5-{4-[3-(4-Cyano-3-trifluoromethyl-phenyl)-5,5-dimethyl-2,4-dioxo-imidazolidin-1-yl]-but-2-ynyloxymethyl}-2-butyryloxymethoxybenzamidomethyl)-doxorubicin]
- stability under AR binding assay conditions [1]: stable under the assay conditions
- RBA (human AR; [2]): 14
- IC50 (human AR; [3]): 63 nM
- nuclear translocation of AR-GFP (AR-GFP receptor; 1.0 μM (up to)): did not instigate translocation into the nucleus
- inhibition of the action of 1.0 nM Mibolerone on AR-GFP (AR-GFP receptor): did serve to inhibit the action of 1.0 nM Mibolerone
- intracellular distribution of fluorescence over time (PC3/AR and PC3/neo cells): remains primarily cytosolic over time
- initial intracellular distribution of fluorescence (PC3/AR and PC3/neo cells; upon initial treatment, 500 nM): predominantly cytosolic

SMILES: CCC(=C(c1ccc(O)cc1)c1ccc(OCCN(C)CCOCCOCCON=Cc2ccc(O)c(C(N)=O)c2)cc1)c1ccccc1 [10c]
- RBA^OHT (estrogen receptor): 3.3

SMILES: CC1(C)C(=O)N(c2ccc(C#N)c(C(F)(F)F)c2)C(=O)N1CCOCCOCc1ccc(O)c(C(N)=O)c1 [8a, 5-(2-{2-[3-(4-Cyano-3-trifluoromethyl-phenyl)-5,5-dimethyl-2,4-dioxo-imidazolidin-1-yl]-ethoxy}-ethoxymethyl)-2-hydroxy-benzamide]
- IC50 (human AR; [3]): 77 nM
- IC50 (human AR; [4]): 77 nM

SMILES: COc1cccc2c1C(=O)c1c(O)c3c(c(O)c1C2=O)C[C@@](O)(C(=O)CO)C[C@@H]3OC1C[C@H](NCNC(=O)c2cc(COCC#CCN3C(=O)N(c4ccc(C#N)c(C(F)(F)F)c4)C(=O)C3(C)C)ccc2O)[C@H](O)[C@H](C)O1 (stereo partly shown) [compound 13, N-(5-{4-[3-(4-Cyano-3-trifluoromethyl-phenyl)-5,5-dimethyl-2,4-dioxo-imidazolidin-1-yl]-but-2-ynyloxymethyl)-2-hydroxy-benzamidomethyl)-doxorubicin]
- stability under AR binding assay conditions [1]: no appreciable hydrolysis
- stability under AR binding assay conditions ([1]; listed as 9): stable under the assay conditions
- IC50 (human AR): 90 nM
- RBA (human AR): 10
- RBA (human AR; [2]): 10
- intracellular distribution of fluorescence over time (PC3/AR and PC3/neo cells): primarily localized to the nucleus

SMILES: CCC(=C(c1ccc(O)cc1)c1ccc(OCCN(C)CCON=Cc2ccc(O)c(C(N)=O)c2)cc1)c1ccccc1 [10a]
- RBA^OHT (estrogen receptor): 1.7
